Laboratory results taken from PubChem BioAssay AID179 (DTP/NCI, 2004).
Calls of active or inactive are those of the source.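 How the source made its calls: active means compounds giving half or more protection of infected cells from virus-caused growth loss, again on retest; inactive means the rest.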

Test system: CEM cells HIV-1 protection, formazan growth assay
Assay: NCI AIDS Antiviral Assay
Settings: for IC50: measured here: growth of uninfected CEM cells
Procedure, shortened: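 Five concentrations of each compound were applied to infected and uninfected human CEM cells. Protection from HIV-1 was judged from growth measured with a soluble formazan assay.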

| SMILES | EC50 [µM] | IC50 [µM] | outcome |
| --- | --- | --- | --- |
| COC(=O)C1=C(C(=O)NNc2ccccc2)N(c2cccnc2Cl)C(c2ccccc2)=CC1c1ccccc1 (centres undefined) | > 200 | 22.9 |  |
| Cc1ccccc1[P+](Cc1ccccc1)(c1ccccc1)c1ccccc1C | > 200 | 0.776 |  |
| Fc1ccc(OCc2ccc3nc(-c4ccccc4)c(Cl)nc3c2)cc1 | > 100 | > 100 |  |
| CC(C)(C)NNC(=O)/C(=C/c1ccc([N+](=O)[O-])cc1)NC(=O)c1ccccc1 | > 7.08 | > 7.08 |  |
| Cn1c(-c2ccc(/C=N/NC(=S)N/N=C/c3ccc(-c4c[n+]5ccsc5n4C)cc3)cc2)c[n+]2ccsc12 | > 200 | 117 |  |
| Cc1cccc(C(C)(C)C)c1NC(=O)CC1C(=O)Nc2ccccc2S1=O (centres undefined) |  |  | inactive |
| Cc1nnc2n(c1=O)CCCN2C | > 200 | > 200 |  |
| Cc1nc2ccccc2c(=O)n1NC(=S)Nc1cccc(Cl)c1 | > 20.9 | > 20.9 |  |
| O=C1OC(CC(=O)c2ccc(Cl)cc2Cl)C(Cl)=C1Cl (centres undefined) | > 148 | 53.7 |  |
| c1ccc(-c2nc3n(n2)CCC(c2ccccc2)S3)cc1 (centres undefined) | 45.7 | > 200 |  |
| SCCCSCCSCCCSCCS | > 17.4 | > 17.4 |  |
| Cc1cccc2c1Oc1cc(Cl)ccc1C2NC(=O)CCN1CCCCC1 (centres undefined) | > 200 | 11.2 |  |
| COC(=O)C1OC2(CCCC3CC32)O[C@H]1C(=O)OC (some centres undefined) |  |  | inactive |
| CC(Cl)c1nc2c(c(=O)[nH]1)C1CCCCCCCN1C(=S)N2C (centres undefined) | > 200 | 12.3 |  |
| Cc1cc2ccc(=O)oc2c2c1OC(C)(C)[C@H](OC(=O)C13CCC(C)(C(=O)O1)C3(C)C)[C@@H]2OC(=O)C12CCC(C)(C(=O)O1)C2(C)C (some centres undefined) | 0.562 | 24 |  |
| C=CCn1c(=O)c2ccccc2[n+]2c(-c3cccc([N+](=O)[O-])c3)csc12 | > 200 | > 200 |  |
| COc1cc2c(c3oc(=O)cc(-c4ccccc4)c13)C(=O)[C@H](C)[C@@H](C)O2 | > 200 | > 200 |  |
| CCOC(=O)c1cn(-c2ccc([N+](=O)[O-])cc2)c(=S)n2c1nc1ccccc12 | > 200 | 9.33 |  |
| FC1OC2OC1C(OCc1ccccc1)C(OCc1ccccc1)C2OCc1ccccc1 (centres undefined) | > 6.03 | > 6.03 |  |
| O=S(=O)(Cc1ccccc1)CS(=O)(=O)Cc1ccccc1 | > 77.6 | > 77.6 |  |
| CC(C)(C)c1cc(Cc2ccc([N+](C)(C)C)cc2)c(O)c(C(C)(C)C)c1 |  |  | inactive |
| O=C(/N=C(\c1ccc(F)cc1)c1ccsc1-n1cccc1)Nc1ccccc1 | > 200 | 4.9 |  |

| SMILES | EC50 [µM] | IC50 [µM] | outcome |
| --- | --- | --- | --- |
| O=c1[nH]c2ccc(CC(=S)N3CCOCC3)cc2s1 | > 200 | > 200 |  |
| CCOC(=O)c1ccc(N(CC(=O)O)S(=O)(=O)c2ccc(C)cc2)s1 | > 20 | > 20 |  |
| O=C1CCCc2ccc([N+](=O)[O-])c(O)c21 |  |  | inactive |
| COc1ccc([C@H]2CC(=O)C[C@H](c3ccc(OC)cc3)C23C(=O)c2ccccc2C3=O)cc1 | > 200 | 2.63 |  |
| CN(C)/N=N/c1nc2c(c(=O)n(C)c(=O)n2C)n1C | > 151 | > 151 |  |
| Cc1cn(C2CC(N=[N+]=[N-])C(CO[Si](C)(C)C(C)(C)C)O2)c(=O)[nH]c1=O (centres undefined) | 7.08 | 66.1 |  |
| O=C1CCC2C(O)c3cc4c(cc3C(c3ccc5c(c3)OCO5)N12)OCO4 (centres undefined) | > 200 | > 200 |  |
| O=C(OCc1ccccc1)N1CCNCCN(C(=O)OCc2ccccc2)CCNCC1 | > 200 | 87.1 |  |
| O=P(O)(Cc1ccccc1)c1ccccc1-c1ccccc1 | > 200 | 49 |  |
| CC(SS(=O)(=O)O)C(N)=NCc1ccccc1 (centres undefined) | > 200 | 67.6 |  |
| O=C1OC(/C=C/c2ccccc2)Sc2ccccc21 (centres undefined) |  |  | inactive |
| CCOC(=O)c1cnc(-n2[nH]c3c(c2=O)CCCC3)[nH]c1=O | > 151 | 29.5 |  |
| COCc1cc2c(cc1/C(=C/[N+](=O)[O-])CS(=O)(=O)c1ccccc1)OCO2 | > 200 | 102 |  |
| CN(NC(=O)/C(=C/C=C/c1ccccc1)NC(=O)c1ccccc1)c1cnn(-c2ccccc2)c(=O)c1Cl | > 200 | 3.24 |  |
| CC(C)=CC(=O)N1CC(C)Cn2c(=S)[nH]c3cccc1c32 (centres undefined) | > 200 | > 200 |  |
| Nc1ncc(/C=C/CNC(=O)c2ccc[nH]2)[nH]1 | > 1070 | 155 |  |
| NC1(CSS(=O)(=O)O)CCN1 (centres undefined) | > 200 | > 200 |  |
| Nc1ccc(F)cc1-c1nc2ccc(F)cc2c2nc3ccccc3n12 |  |  | inactive |
| CC(=O)C(CN(CC(C)C)CC(C)C)C(c1ccccc1)c1c(O)c2ccccc2oc1=O (centres undefined) | > 28.2 | > 28.2 |  |
| OCC(O)COc1ccc(F)cc1 (centres undefined) | > 1350 | > 1350 |  |
| c1ccc2c(c1)nc1nc3c(cn12)CCCC3 | > 151 | > 151 |  |
| COC(=O)[C@@]12CC(C(C)C)[C@H]3CC(C(=O)C=C1OC)[C@H]32 (some centres undefined) |  |  | inactive |

| SMILES | EC50 [µM] | IC50 [µM] | outcome |
| --- | --- | --- | --- |
| NCCC1C2CC3CC(C2)CC1C3 (centres undefined) |  |  | inactive |
| Cc1cc(C2C(=O)c3ccccc3C2=O)cc(C)c1O |  |  | inactive |
| CCN(CC)C(=S)SS(=O)(=O)c1cccc(N)c1 | > 200 | > 200 |  |
| Cc1cnc2c(Nc3ccc(Cl)cc3)cc(N)nc2n1 | > 120 | 4.47 |  |
| CNC(=S)NNc1ncnc2c1ncn2-c1ccc(C)cc1 | > 200 | 57.5 |  |
| O=c1[nH][nH]c(=O)n1CCCCCCn1c(=O)[nH][nH]c1=O | > 200 | > 200 |  |
| O=c1cc[nH]c2c1ccc1[nH]ccc(=O)c12 | > 200 | > 200 |  |
| O=C1CCc2cc3c(cc21)CC1(Cc2cc4c(cc2C1)CCCC4)C3 | > 200 | 138 |  |
| Cc1cc(NS(=O)(=O)c2ccc(Nc3c4ccccc4nc4c(C(=O)Nc5ccc(S(N)(=O)=O)cc5)cccc34)cc2)no1 | 25.1 | 50.1 |  |
| O=C(/C=C\c1ccc(O)c(O)c1)OC1C(O)CC(OC(=O)/C=C/c2ccc(O)c(O)c2)(C(=O)O)CC1O (centres undefined) | > 200 | 30.2 |  |
| Clc1cc2n[se]nc2cc1Cl |  |  | inactive |
| O=S1(=O)CCC(OC2CCS(=O)(=O)C2)C1 (centres undefined) | > 977 | > 977 |  |
| CC(CC(C)(C)[N+](C)(C)C)[N+](C)(C)C (centres undefined) | > 200 | > 200 |  |
| C=CCc1c(O)c2nsnc2c2nsnc12 | > 200 | > 200 |  |
| C=C(C)C(=O)O[C@H]1CC2(CO)O[C@@H]2CC/C(COC(C)=O)=C/C2OC(=O)C(=C)[C@@H]21 (some centres undefined) | > 200 | 4.37 |  |
| CCOC(=O)c1cn(C)nc1N/C(C)=C\C(=O)c1ccccc1 | > 200 | 75.9 |  |
| CN1CCN(c2ccc(-n3cc(C(=O)O)c(=O)c4cc(F)c(N5CCN(C)CC5)cc43)nc2)CC1 | > 200 | 115 |  |
| COC(=O)NC(Nc1ccc(Cl)cc1Cl)(C(F)(F)F)C(F)(F)F |  |  | inactive |
| CC(=O)Nc1ccc2oc3ccc(Cl)cc3c(=O)c2c1 | > 174 | 77.6 |  |
| COc1cc(C(c2c(O)c3ccccc3oc2=O)c2c(O)c3ccccc3oc2=O)cc(OC)c1OC | > 200 | 93.3 |  |
| CC1(C)NC(=O)[C@]2(C[C@@H](OC(=O)c3ccccc3)C=C2C=O)O1 | > 200 | 2.45 |  |
